Measured values published in US8784910B2, “Antimicrobial compositions” (Lonza Inc., priority 2002, dated 2014).

Tests used:
Type in all cases: cell-based
[1] = test system: S. aureus, P. aeruginosa, and E. coli; test: Mixed bacterial challenge of preserved GMS cream (Example 6)
Procedure: Each anionic shampoo sample in FIGS. 1-3 were tested as follows. […] Each stab was then washed with 3 mL of sterile 0.85% saline solution. The washes of the 3 stabs were pooled together to form an organism mixture. The absorbance of the organism mixture at 530 nm was adjusted to about 1.00 by adding saline. The spectrometer was calibrated with a saline blank. A 5 mL aliquot of the organism mixture was mixed together to produce the standardized mixed bacterial solution. Then, 40 g of each shampoo sample was inoculated with 0.2 mL of the standardized mixed bacterial solution and mixed. 1 g of the mixture was added to a sterile 20×150 mm screw cap test tube. 9 mL of sterile D/E neutralizer broth was added to the test tube and mixed to form a 10^−1 dilution. Serial dilutions were prepared through to a 10^−6 dilution with phosphate buffered water. The serial dilutions were plated onto Tryptic Soy Agar and incubated for 2 days at about 35 EC. Bacteria counts were performed after 21 days. Each cream sample in Table 5 below was tested by the procedure described in Example 1. A glyceryl monostearate (GMS) cream as described in Table 3 below was prepared as follows. The polyoxyethylene glyceryl monostearate, glyceryl monostearate, cetearyl alcohol, and myristyl propionate were mixed and heated to 60 EC in a first container. The glycerin and sterile deionized water were mixed and heated to 60 EC in a second container. The solution in the first container was poured into the second container. The second container was maintained at 60 EC for 10 minutes. The solution in the second container was allowed to cool. The pH of the solution was adjusted to pH 7 with sodium hydroxide to yield the GMS cream. The cream samples shown in Table 6 below were prepared by mixing the appropriate amounts of the preservatives and the GMS cream and heating the mixture to 50 EC for 10-15 minutes.

[2] = test system: Candida albicans and Aspergillus niger; test: Mixed fungal challenge of preserved anionic protein shampoo (Example 5)
Procedure: Each anionic shampoo sample in Table 4 below was tested as follows. A standard mixed […] solution was prepared according to the following procedure. 2 agar […] of Candida albicans and 4 agar […] of Aspergillus niger were separately incubated at about 25 EC for about 48 hours and 7 days, respectively. Each slant was washed with 3 mL of sterile 0.85% saline solution, collected and macerated in a tissue grinder. Sufficient amounts of 0.85% saline solution were added to each slant to obtain a visual count under a microscope with a Neubauer Hemocytometer of each innoculum of C. albicans and A. niger. Equal volumes of each standardized innoculum of C. albicans and A. niger were mixed together to form the standardized mixed fungal solution. 40 g of each shampoo sample was inoculated with 0.4 mL of the standardized mixed fungal solution and mixed. 1 g of the mixture was added to a sterile 20×150 mm screw cap test tube. 9 mL of sterile D/E neutralizer broth was added to the test tube and mixed to form a 10^-1 dilution. Serial dilutions were prepared through to a 10^-6 dilution with phosphate buffered water. The serial dilutions were plated onto Sabourand dextrose agar and incubated 5 days at about 25 EC. […] The anionic protein shampoo composition is described in Example 4. The shampoo samples were prepared by mixing the appropriate amounts of the preservatives and the anionic protein shampoo composition and heating the mixture to about 50 EC for about 15 minutes.

fungi = test: Fungal plate count of preserved GMS cream (Example 6)
Procedure: Each cream sample in Table 5 below was tested by the procedure described in Example 1. A glyceryl monostearate (GMS) cream as described in Table 3 below was prepared as follows. The polyoxyethylene glyceryl monostearate, glyceryl monostearate, cetearyl alcohol, and myristyl propionate were mixed and heated to 60 EC in a first container. The glycerin and sterile deionized water were mixed and heated to 60 EC in a second container. The solution in the first container was poured into the second container. The second container was maintained at 60 EC for 10 minutes. The solution in the second container was allowed to cool. The pH of the solution was adjusted to pH 7 with sodium hydroxide to yield the GMS cream. The cream samples shown in Table 7 below were prepared by mixing the appropriate amounts of the preservatives and the GMS cream and heating the mixture to 50 EC for 10-15 minutes.

[3] = test system: Staphylococcus aureus (ATCC #6538); test: Minimum Inhibitory Concentration (MIC), autodilutor, nutrient broth, 96 well plates (Example 8); details: Staphylococcus aureus, ATCC6538; 72 hours at 32 degree Celsius, approximately 10^6 cfu/g, visual turbidity; read-out: MIC for S. Aureus
Procedure: The Minimum Inhibitory Concentration (MIC) of the preservative mixtures was tested. The MIC is the lowest concentration of an ingredient that will inhibit the growth of an organism. This study was conducted using the Hamilton Micro Lab AT Plus Autodilutor Liquid handling System. The programs for the auto-dilutor were based on Lonza's Standard Application Method SAPM#412-01-1. The Hamilton Autodilutor was used to dilute the starting concentrations of the preservative combination by 50% using nutrient broth in 96 well micro titer plates and also to inoculate the microorganism in the test samples. This preservatives tested were Isocil™ (a blend of methyl isothiazolinone and methyl-chloro-isothiazolinone), Benzocil™ (benzisothiazolinone) and Lonzagard™ (benzethonium chloride), all of which are available from Lonza Inc. of Fair Lawn, N.J., in various concentrations and combinations with cinnamaldehyde. Controls were also included in each test plate. […] Results were determined by checking for growth in the test samples versus the control wells on each plate (visual determination of turbidity in the wells). […] Synergism values for the Isocil™/cinnamaldehyde and Benzocil™/cinnamaldehyde combinations were calculated from the MIC values reported in Table 11 by the method described in Kull, supra, referred to above, and are set forth in Tables 12 and 13, below.

O=CC=Cc1ccccc1 [Cinnamaldehyde, cinnamaldehyde]
S. aureus, P. aeruginosa, and E. coli Day 0 ([1]; 0.10% in GMS cream pH 7, Day 0): 3.0 × 10^7 cfu/g | S. aureus, P. aeruginosa, and E. coli Day 7 ([1]; 0.10% in GMS cream pH 7, Day 7): 4.0 × 10^4 cfu/g | S. aureus, P. aeruginosa, and E. coli Day 14 ([1]; 0.10% in GMS cream pH 7, Day 14): 9.3 × 10^5 cfu/g | S. aureus, P. aeruginosa, and E. coli Day 0 ([1]; 0.25% in GMS cream pH 7, Day 0): 3.0 × 10^7 cfu/g | S. aureus, P. aeruginosa, and E. coli Day 7 ([1]; 0.25% in GMS cream pH 7, Day 7): <10 cfu/g | S. aureus, P. aeruginosa, and E. coli Day 14 ([1]; 0.25% in GMS cream pH 7, Day 14): <10 cfu/g | Fungal Plate Count Day 0 ([2]; 0.05% in shampoo): 1.0 × 10^5 cfu/g | Fungal Plate Count Day 7 ([2]; 0.05% in shampoo): 8.0 × 10^3 cfu/g | Fungal Plate Count Day 14 ([2]; 0.05% in shampoo): <10 cfu/g | Fungal Plate Count Day 0 ([2]; 0.10% in shampoo): 1.0 × 10^5 cfu/g | Fungal Plate Count Day 7 ([2]; 0.10% in shampoo): 3.0 × 10^1 cfu/g | Fungal Plate Count Day 14 ([2]; 0.10% in shampoo): <10 cfu/g | Fungal Plate Count Day 0 ([2]; 0.20 in shampoo): 1.0 × 10^5 cfu/g | Fungal Plate Count Day 7 ([2]; 0.20 in shampoo): <10 cfu/g | Fungal Plate Count Day 14 ([2]; 0.20 in shampoo): <10 cfu/g | Fungal Plate Count Day 0 (fungi; 0.10% in GMS cream): 1.0 × 10^5 cfu/g | Fungal Plate Count Day 7 (fungi; 0.10% in GMS cream): <10 cfu/g | Fungal Plate Count Day 14 (fungi; 0.10% in GMS cream): <10 cfu/g | Fungal Plate Count Day 0 (fungi; 0.25% in GMS cream): 1.0 × 10^5 cfu/g | Fungal Plate Count Day 7 (fungi; 0.25% in GMS cream): <10 cfu/g | Fungal Plate Count Day 14 (fungi; 0.25% in GMS cream): <10 cfu/g | MIC [3]: 125 µg/mL
